Reference: publication PMC9686989, “Exploration of Molecular Structure, DFT Calculations, and Antioxidant Activity of a Hydrazone Derivative” (Antioxidants, 2022)

Tests used:
[1] = DPPH radical scavenging assay; conditions: DPPH in methanol, 30 min in the dark, absorbance at 517 nm, triplicate
Experimental: (§1) The antioxidant activity of compound 2 was measured using ABTS antioxidant assay and DPPH radical scavenging assay using ascorbic acid and quercetin as standard compounds. The antioxidant activity of compound 1 was not determined here, as it was isolated as a by-product in trace amounts. Furthermore, this compound is reported, and thus, it was believed unnecessary to pursue its antioxidant capacity.
The 100 µM DPPH stock solution was prepared in absolute methanol. The 2.0 mM stock solutions of compound 2 and the reference standards ascorbic acids and quercetin were also prepared in absolute methanol. Then, these solutions were diluted with methanol to 1000, 500, 250, 100, 50, 25, 12.5, 6.25, 3.13, 1.56, 0.781, 0.391, 0.195, 0.0977, 0.0488, 0.0244, and 0.0122 µM solutions. Afterwards, 0.7 mL of the DPPH solution and 0.7 mL of solutions of compound 2 or standard materials prepared above were mixed in a test tube and kept in the dark for 30 min. After 30 min incubation, the UV absorption at 517 nm was measured. All experiments were performed in triplicate. The radical scavenging rates were obtained from these UV absorption data, and the resulting IC50 values were calculated using Origin 8. Percentage (%) of DPPH radical scavenging = [(A0 − A1)/A0] × 100(2) where A0 was the absorbance of the control, and A1 was the absorbance of the treated sample.

[2] = ABTS antioxidant assay (radical scavenging); conditions: radical cation ABTS•+ in methanol, 60 min in the dark, absorbance at 745 nm, triplicate
Experimental: as §1
Equal amounts of 7 mM ABTS (2,2′-azino-bis(3-ethylbenzothiazoline-6-sulphonic acid)) stock solution and 2.45 mM potassium persulfate stock solution were mixed and stored at 0 °C for 12 h in the dark to produce the radical cation ABTS^•+. The prepared radical cation ABTS^•+ solution was diluted with methanol so that the UV absorption value was below 1.000 at 745 nm. The compound 2 and reference standards, including ascorbic acid and quercetin, were dissolved in methanol to obtain 2000 µM stock solutions. Then, these solutions were diluted with methanol to 1000, 500, 250, 125, 62.5, 31.3, 15.6, 7.81, 3.91, 1.95, 0.977, 0.488, 0.244, 0.122, and 0.0610 µM solutions. Then, 0.9 mL of the ABTS^•+ solution and 0.1 mL of solutions of compound 2 or standard materials prepared above were mixed in a test tube and kept in the dark for 60 min. After 60 min incubation, the UV absorption at 745 nm was measured. All experiments were performed in triplicate. The radical scavenging rates were obtained from these UV absorption data, and the resulting IC50 values were calculated using Origin 8 (Northampton, MA, USA). Percentage (%) of ABTS radical scavenging = [(A0 − A1)/A0] × 100(1) where A0 was the absorbance of the control, and A1 was the absorbance of the treated sample.

A549 cells = test: Cell cytotoxicity assay (MTT); assay type: cell-based
Experimental: The A549 cells ([…]) were used in the cytotoxicity assay (MTT (3-(4,5-dimethylthiazol-2-yl)-2,5-diphenyltetrazolium bromide) assay) of compound 2. The A549 cells were grown in an incubator at 37 °C and 5% CO2 using DMEM media containing 2 mM glutamine and 10% FBS. Cells were trypsinized for seeding at 70–90% of cell confluency. About 7000 A549 cells per well were seeded in 96-well plates and incubated for 24 h at 37 °C in the presence of 5% CO2. Then, the media was replaced with the media containing compound 2 at various concentrations, including 0.1, 10, 25, and 50 µM, and incubated for another 24 h. Dimethyl sulfoxide (DMSO) was used as a vehicle. […] After 24 h incubation, the media was replaced with 200 µL of fresh media containing MTT solution and incubated for four hours at 37 °C. The absorbance was recorded at 570 nm to evaluate the cell viability. Each experiment was executed three times. Origin software was used for the data analysis.

Row | IC50 [1] [µM] | IC50 [2] [µM] | SMILES | decrease in cell growth compared to the control (A549 cells; 24 h treatment, 50 µM, MTT, DMSO control) [%] | cytotoxicity (cell death) (A549 cells; 24 h treatment, 0.1–25 µM, MTT, DMSO control) | cell cytotoxicity (A549 cells; at 25 µM) | cytotoxicity (A549 cells; below 25 µM)
1 | 28.7 ± 0.65 | 13.2 ± 0.45 | O=C1O[C@H]([C@@H](O)CO)C(O)=C1O [Ascorbic acid, ascorbic acid] |  |  |  | 
2 | 4.02 ± 0.058 | 3.57 ± 0.54 | O=c1c(O)c(-c2ccc(O)c(O)c2)oc2cc(O)cc(O)c12 [Quercetin, quercetin] |  |  |  | 

Row | SMILES | IC50 [1] [µM] | IC50 [2] [µM] | decrease in cell growth compared to the control (A549 cells; 24 h treatment, 50 µM, MTT, DMSO control) [%] | cytotoxicity (cell death) (A549 cells; 24 h treatment, 0.1–25 µM, MTT, DMSO control) | cell cytotoxicity (A549 cells; at 25 µM) | cytotoxicity (A549 cells; below 25 µM)
3 | C/C(=N\N=C(/C)c1ccc(O)cc1O)c1ccc(O)cc1O [Compound 2, 4,4′-((1E,1′E)-hydrazine-1,2-diylidenebis(ethan-1-yl-1-ylidene))bis(benzene-1,3-diol)] | 81.06 ± 0.72 | 4.3 ± 0.21 | ~40 | did not show significant cell death | did not show any cell cytotoxicity | almost no cytotoxicity
